In US9079886B2, “Substituted triazole derivatives as gamma secretase modulators” (Janssen Pharmaceuticals, Inc., priority 2010, dated 2015):
Where two headings read alike, the source gives them in different places.

Experiments:
[1] = system: Aβ42 and Aβtotal in the soluble fraction of brain homogenates; assay: In vivo Aβ42 lowering: brain soluble Aβ42 and Aβtotal by ELISA after a single oral dose; design: species or system mouse; details: dose 30 mg/kg oral dosing, 4 h after dosing; for response vs control in vivo at 30 mg/kg: Mus musculus, po, 4 h
Description: To determine whether acute administration of an Aβ42 lowering agent would reduce Aβ42 levels in vivo, non-transgenic rodents, e.g. mice or rats were used. Animals treated with the Aβ42 lowering agent were examined and compared to those untreated or treated with vehicle and brain levels of soluble Aβ42 and total A13 were quantitated by standard techniques, for example, using ELISA. Treatment periods varied from hours (h) to days and were adjusted based on the results of the Aβ42 lowering once a time course of onset of effect could be established.
(§1) A typical protocol for measuring Aβ42 lowering in vivo is shown but it is only one of many variations that could be used to optimize the levels of detectable Aβ. For example, Aβ42 lowering compounds were formulated in 20% of Captisol® (a sulfobutyl ether of β-cyclodextrin) in water or 20% hydroxypropyl β cyclodextrin. The Aβ42 lowering agents were administered as a single oral dose or by any acceptable route of administration to overnight fasted animals. After 4 h, the animals were sacrificed and Aβ42 levels were analysed.
(§2) Blood was collected by decapitation and exsanguinations in EDTA-treated collection tubes. Blood was centrifuged at 1900 g for 10 minutes (min) at 4° C. and the plasma recovered and flash frozen for later analysis. The brain was removed from the cranium and hindbrain. The cerebellum was removed and the left and right hemisphere were separated. The left hemisphere was stored at −18° C. for quantitative analysis of test compound levels. The right hemisphere was rinsed with phosphate-buffered saline (PBS) buffer and immediately frozen on dry ice and stored at −80° C. until homogenization for biochemical assays.
Mouse brains from non-transgenic animals were resuspended in 8 volumes of 0.4% DEA (diethylamine)/50 mM NaCl containing protease inhibitors (Roche-11873580001 or 04693159001) per gram of tissue, e.g. for 0.158 g brain, add 1.264 ml of 0.4% DEA. All samples were homogenized in the FastPrep-24 system (MP Biomedicals) using lysing matrix D (MPBio #6913-100) at 6 m/s for 20 seconds. Homogenates were centrifuged at 221.300×g for 50 min. The resulting high speed supernatants were then transferred to fresh eppendorf tubes. Nine parts of supernatant were neutralized with 1 part 0.5 M Tris-HCl pH 6.8 and used to quantify Aβtotal and Aβ42.
To quantify the amount of Aβtotal and Aβ42 in the soluble fraction of the brain homogenates, Enzyme-Linked-Immunosorbent-Assays were used. Briefly, the standards (a dilution of synthetic Aβ1-40 and Aβ-42, Bachem) were prepared in 1.5 ml Eppendorf tube in Ultraculture, with final concentrations ranging from 10000 to 0.3 pg/ml. The samples and standards were co-incubated with HRPO-labelled N-terminal antibody for Aβ42 detection and with the biotinylated mid-domain antibody 4G8 for Aβtotal detection. 50 μl of conjugate/sample or conjugate/standards mixtures were then added to the antibody-coated plate (the capture antibodies selectively recognize the C-terminal end of Aβ42, antibody JRF/cAB42/26, for Aβ42 detection and the N-terminus of Aβ, antibody JRF/rAβ/2, for Aβtotal detection). The plate was allowed to incubate overnight at 4° C. in order to allow formation of the antibody-amyloid complex. Following this incubation and subsequent wash steps the ELISA for Aβ42 quantification was finished by addition of Quanta Blu fluorogenic peroxidase substrate according to the manufacturer's instructions (Pierce Corp., Rockford, Il). A reading was performed after 10 to 15 min (excitation 320 nm/emission 420 nm).
For Aβtotal detection, a Streptavidine-Peroxidase-Conjugate was added, followed 60 min later by an addional wash step and addition of Quanta Blu fluorogenic peroxidase substrate according to the manufacturer's instructions (Pierce Corp., Rockford, Il). A reading was performed after 10 to 15 min (excitation 320 nm/emission 420 nm). […]

[2] = Central brain availability: compound levels in plasma and brain; type: in vivo; details: mouse, dose 30 mg/kg oral dosing
Protocol: as §1, §2
Also the central brain availability of Compounds 3, 5, 10 and A were measured:
The results are shown in Table 5 (dose 30 mg/kg oral dosing; 4 hours): […]

[3] = Liver metabolic stability assay, human liver microsomes; type: in vitro ADME; details: 1 μM substrate, 1 mg/ml protein, 37° C., 15 minutes
Protocol: (§3) Each compound was spiked into a suspension of liver microsomes prepared from the species under investigation, at a final substrate concentration of 1 μM, and a protein concentration of 1 mg/ml, and pre-incubated at 37° C. for 11 minutes. The incubation also contains a NADPH (3-nicotinamide adenine dinucleotide phosphate, reduced) regenerating system. After this preincubation period, NADP (β-nicotinamide adenine dinucleotide phosphate) was added to the active incubations, and the incubations maintained at 37° C. for 15 minutes, during which period metabolism can take place. After 15 minutes, 2 volumes of DMSO (dimethylsulfoxide) were added to each active incubation to inactivate and precipitate proteins. Control incubations were not preincubated at 37° C., but instead were quenched by the addition of DMSO prior to the addition of NADP. Following centrifugation, the supernatant from each incubation was transferred to a separate analysis plate, and analysed for the concentration of the parent compound by LC/MS/MS using a compound-specific LC/MS/MS method and a generic HPLC gradient. The turnover of the parent compound is expressed as the % reduction in concentration in the analyte samples compared to that in the control incubations. Each incubation is performed in triplicate.

[4] = Liver metabolic stability assay, mouse liver microsomes; type: in vitro ADME; details: 1 μM substrate, 1 mg/ml protein, 37° C., 15 minutes
Protocol: as §3

[5] = untreated animals (Ctrl) set at 100, 30 mg/kg
[6] = untreated animals (Ctrl) set at 100, read-out: Aβ42 (% vs Ctrl) _Mean
[7] = untreated animals (Ctrl) set at 100, read-out: Aβtotal (% vs Ctrl)_Mean

SMILES	melting point [°C]	response vs control in vivo at 30 mg/kg [1, 6] [%]	response vs control in vivo at 30 mg/kg [1, 7] [%]	also measured
COc1cc(Nc2nc(N3CCCC(C(F)(F)F)C3)n(C(C)C)n2)ccc1-n1cnc(C)n1 (single isomer, unassigned) [Compound 109]	140.1			Aβ42 (% vs Ctrl) _Mean [1, 5]: 85 % vs Ctrl; Aβtotal (% vs Ctrl)_Mean [1, 5]: 117 % vs Ctrl
COc1cc(Nc2nc(N3CCCC(C(F)(F)F)C3)n(C(C)C)n2)ccc1-n1cnc(C)n1 (racemic) [Compound 59]	134	69	94	
COc1cc(Nc2nc(-c3ccc(F)cc3)n(C)n2)ccc1-n1cnc(C)c1 [Compound 10]	247.1	68	110	concentration at 4 h ([2]; brain, read-out: Brain): 4640 ng/g; concentration at 4 h ([2]; plasma, read-out: Plasma): 2700 ng/mL; turnover of the parent compound (% reduction in concentration vs control incubations), human liver microsomes [3]: 14%; turnover of the parent compound (% reduction in concentration vs control incubations), mouse liver microsomes [4]: 10%
Cc1cc(-c2ccc(Nc3nc(Oc4ccccc4Cl)n(C(C)C)n3)cc2)ccn1 [Compound 140]	142.5	83	86	
COc1cc(Nc2nc(N3CCCC(C(F)(F)F)C3)n(C(C)C)n2)ccc1-n1cnc(C)c1 (stereo not shown) [Compound 54]	173	46	88	
COc1cc(Nc2nnc(-c3ccc(F)cc3)[nH]2)ccc1-n1cnc(C)c1 [Compound A, reference compound]		101	106	concentration at 4 h ([2]; brain, read-out: Brain): 0 ng/g; concentration at 4 h ([2]; plasma, read-out: Plasma): 0 ng/mL; turnover of the parent compound (% reduction in concentration vs control incubations), human liver microsomes [3]: 64%; turnover of the parent compound (% reduction in concentration vs control incubations), mouse liver microsomes [4]: 22%
COc1cc(Nc2nc(N3CCCC(C(F)(F)F)C3)n(C(C)C)n2)ccc1-c1ccnc(C)c1 (stereo not shown) [Compound 67]		60	89	
Cc1cc(-c2ccc(Nc3nc(Oc4ccccc4Cl)n(C(C)C)n3)cc2F)ccn1 [Compound 141]		78	98	
COc1cc(Nc2nc(Oc3ccccc3Cl)n(C(C)C)n2)ccc1-c1ccnc(C)c1 [Compound 69]		63	97	
COc1cc(Nc2nc(Oc3cccc(C(F)(F)F)c3)n(C(C)C)n2)ccc1-n1cnc(C)n1 [Compound 5]	166.6			concentration at 4 h ([2]; brain, read-out: Brain): 1630 ng/g; concentration at 4 h ([2]; plasma, read-out: Plasma): 1630 ng/mL
COc1cc(Nc2nc(-c3cccc(C(F)(F)F)c3)n(C(C)C)n2)ccc1-n1cnc(C)c1 [Compound 46]	186.8	61	98	
Cc1cc(-c2ccc(Nc3nc(N4CCOC(C(F)(F)F)C4)n(C(C)C)n3)cc2)ccn1 (stereo not shown) [Compound 133]		67	94	
COc1cc(Nc2nc(Oc3ccccc3Cl)n(C(C)C)n2)ccc1-n1cnc(C)c1 [Compound 52]	167.1	45	112	
COc1cc(Nc2nc(Oc3ccccc3Cl)n(C(C)C)n2)ccc1-n1cnc(C)n1 [Compound 3]				concentration at 4 h ([2]; brain, read-out: Brain): 8510 ng/g; concentration at 4 h ([2]; plasma, read-out: Plasma): 7740 ng/mL
Cn1nc(Nc2ccc(-c3ccnc(C(F)(F)F)c3)cc2)nc1-c1cccc(C(F)(F)F)c1 [Compound 178]	179.2			
COc1cc(Nc2nc(Oc3c(F)cccc3Cl)n(C(C)C)n2)ccc1-c1ccnc(C)c1 [Compound 160]		77	83	
COc1cc(Nc2nc(N3CCCC(C(F)(F)F)C3)n(C(C)C)n2)ccc1-n1cnc(C)n1 (single isomer, unassigned) [Compound 108]	141.6	70		Aβtotal (% vs Ctrl)_Mean [1, 5]: 94 % vs Ctrl
COc1cc(Nc2nc(N3CCCC(C(F)(F)F)C3)n(C)n2)ccc1-n1cnc(C)c1 (stereo not shown) [Compound 2]	199.9			
Cc1cc(F)ccc1Oc1nc(Nc2ccc(-c3ccncc3)cc2)nn1C(C)C [Compound 112]	204.1 to 205.4			
COc1cc(Nc2nc(N3CCOC(c4cccc(C)c4)C3)n(C(C)C)n2)ccc1-n1cnc(C)c1 (stereo not shown) [Compound 58]		88	89	
COc1cc(Nc2nc(Oc3ccccc3Cl)n(CCNC(C)C)n2)ccc1-c1ccnc(C)c1 [Compound 149]	138.6			
COc1cc(-c2ccc(Nc3nc(Oc4ccc(F)cc4C)n(C(C)C)n3)cc2)ccn1 [Compound 180]	132.8 to 143.6			
COc1cc(NC(=O)c2nc(Oc3ccc(F)cc3C)n(C(C)C)n2)ccc1-n1cnc(C)c1 [Compound 9]	158.4			
Cc1cc(-c2ccc(Nc3nc(Oc4ccc(F)cc4C)n(C(C)C)n3)cc2)ccn1 [Compound 164]	138.9			
COc1cc(Nc2nc(N3CCc4ccccc4C3)n(C(C)C)n2)ccc1-n1cnc(C)c1 [Compound 57]	214.5			
COc1cc(Nc2nc(Oc3cc(C(F)(F)F)ccc3F)n(C)n2)ccc1-c1ccnc(C)c1 [Compound 168]	145.1			
Cc1cc(-c2ccc(Nc3nc(-c4cccc(C(F)(F)F)c4)n(C(C)C)n3)cc2F)ccn1 [Compound 138]	199.6			
